In ChEMBL document CHEMBL1153649, “Peptidyl epoxides as inhibitors of -chymotrypsin: Remarkable change from irreversible to reversible competitive inhibitor as a consequence of the improvement of binding affinity” (Bioorg Med Chem Lett, 1996) one finds Ki and K inact/Ki data, which are given here for two molecules.

Molecules are shown by their SMILES.

Assay [1] has as its target T1, Chymotrypsinogen B (Homo sapiens, UniProt P17538). Description: Compound was tested for inhibitory activity against alpha-chymotrypsin.
In assay [2] the target is T1, Chymotrypsinogen B. The assay can be described thus: Inhibitory potency was evaluated against alpha-chymotrypsin.

T1 sequence (P17538 34-164 limits assumed, other chains not shown): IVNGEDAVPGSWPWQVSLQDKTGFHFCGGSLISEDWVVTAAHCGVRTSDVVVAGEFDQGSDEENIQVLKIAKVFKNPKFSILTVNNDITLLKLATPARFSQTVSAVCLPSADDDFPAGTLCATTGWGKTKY
T1 sequence (P17538 167-263 limits assumed, other chains not shown): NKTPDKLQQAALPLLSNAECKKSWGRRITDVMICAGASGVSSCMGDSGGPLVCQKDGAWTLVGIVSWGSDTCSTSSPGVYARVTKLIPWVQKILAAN

Consider `O=C(N[C@@H](Cc1ccccc1)[C@@H]1CO1)C1CCCN1C(=O)c1ccccc1` (single isomer, unassigned), for which the Ki (as a rule, the equilibrium dissociation constant of an inhibitor or competing ligand from its target) at Chymotrypsinogen B [1] is 820 µM.
In turn, `COC(=O)[C@@H](Cc1ccccc1)[C@@H]1CO1` (single isomer, unassigned) came in with a K inact/Ki on Chymotrypsinogen B [2] of 27 M⁻¹ s⁻¹.
